For assay [1], the system named is ID8agg cells. The experiment in a line: Chk1 inhibitor synthetic lethality with ceftazidime, ID8agg cells. Type of assay: cell-based, mouse. The procedure: (§1) Additional experiments were performed, as follows. MB49 were plated at 2,000 cells/well in 96 well flat bottom plates and treated with PD-L1 depleting drugs, olaparib (2.5 μM), and combination for 96 hours. RT4 were plated at 2,000 cells/well in 96 well flat bottom plates and treated with cefepime, rabusertib (1 μM), praxasertib, or combination for 96 hours. ID8agg, 4T1, and B16 cells were plated on fibronectin at 500 cells/well and treated with cefepime, rabusertib, or combination for 96 hours. Normalized treatment combination to DDR inhibitor alone, and PD-L1 depleting drug to vehicle alone (DMSO) were evaluated.

Assay [2] deals with PD-L1. The experiment in a line: Tumor cell PD-L1 depletion by drugs (flow cytometry, immunoblot). Type of assay: cell-based, human and mouse. The note with it: summary statement. The procedure:
High throughput Screening: B16 PD-L1 RFP cells were treated with 2.5 and 10 μM compounds from the Prestwick and LOPAC Libraries for 48 hours using the Agilent Bravo liquid pipetting platform. Then, cells were washed with PBS, and fixed with 4% paraformaldehyde (Electron Microscopy Sciences, Hatsfield, PA, Cat 15714S) and labeled with 2 μg/ml DAPI, (Molecular Probes, Cat D1306) and 1 μg/ml Cell Mask-Blue (Invitrogen, Cat. H32720). Plates were then imaged using the Operetta High Content Imaging System, Perkin Elmer, Waltham (DAPI and Cell Mask Blue, Ex 360-400, Em 410-480), and the RFP channels (Ex 520-550, Em 560-630) channels. Agents effecting ≥2-fold PD-L1 reduction in the RFP reporter without loss of ≥20% cell viability were candidate PD-L1 depletion agents.
Flow cytometry: Mice were sacrificed by cervical dislocation after induction of deep isoflurane anesthesia. ID8agg tumors were collected and cells were stained as described (Derup et al., 2020) using LSR II hardware and analyzed by FACS Diva (BD Bioscience) or Flow Jo software (Flow Jo, LLC). Anti-mouse (clone 10F.9G2) and human (clone 29E.2A3) PD-L1 [both PE/Cy7, Cat #124314 (mouse) 329718 (human)] were matched with isotype control. Apoptosis assessment used Annexin V and propidium iodide (Thermo Scientific) per manufacturer instruction.
Western blotting and immunoprecipitation: To prepare whole cell lysates, cells were harvested and lysed in RIPA (radioimmunoprecipitation assay) buffer plus 1 mM phenylmethylsulphonyl fluoride and Halt protease/phosphatase inhibitor cocktail (Thermo Scientific) at 4° C. Protein concentrations were measured by BCA Protein Assay Kit (Thermo Scientific). Protein was run on precast 4-15% sodium dodecyl sulfate polyacrylamide gels (Bio-Rad), transferred to polyvinylidene fluoride membranes (GE Water and Process Technologies), and then blocked in 5% non-fat milk for 1 hour at room temperature. The membranes were then incubated with 1:1000 diluted primary antibodies against indicated proteins (Cell Signaling). Specific antibody binding was detected by chemiluminescence using Western Lightening Plus regent (Perkin Elmer). Cells for (co) immunoprecipitation experiments were seeded in 15-cm dishes and cultured as described, using 6 million cells per immunoprecipitation reaction. For protein ubiquitination, cells were lysed in denaturing buffer (50 mM Tris-HCl, 0.5 mM EDTA and 1% SDS) followed by heating at 95° C. for 10 minutes and then quenched with 9 volumes of quenching buffer (0.5% Triton X-100, 20 mM Tris-HCl (pH 8.0), 137 mM NaCl, 10% glycerol, 2 mM EDTA). Protease inhibitor cocktail (Roche) was added fresh to all buffers. Cell lysates were incubated on a rotator for 30 minutes at 4° C., and then centrifuged at 20,000 g for 15 minutes at 4° C. Supernatants were subsequently incubated with anti-PD-L1 antibody overnight and processed using Dynabeads Protein G for Immunoprecipitation (Thermo Fisher Scientific). The final eluate was processed and Western blotting was performed.
(In general: In flow cytometry, cells or beads pass a laser one at a time.)

For assay [3], the system named is RT4 cells. The experiment in a line: Chk1 inhibitor synthetic lethality with beta-lactam antibiotics, RT4 cells. The format is cell-based, human. The procedure: as §1

Take `CC(C)(O/N=C(\C(=O)N[C@@H]1C(=O)N2C(C(=O)[O-])=C(C[n+]3ccccc3)CS[C@H]12)c1csc(N)n1)C(=O)O` [ceftazidime]: the “synthetic lethality with Chk1i” value in assay [1] is reported as “induce synthetic lethality”; in assay [3] (RT4 cells, Chk1i rabusertib) it was “induce synthetic lethality”. For the same compound, the “expression of PD-L1 in cancer cells” value in assay [2] is on record as “decreased expression of PD-L1”. In addition, in assay [3] (FIG. 47B), the “PD-L1 dependence of synthetic lethality” value was “PD-L1 dependent”.

The record behind these values is US12404332B2, “Methods for diagnosing and treating cancers” (Research Development Foundation, priority 2020, dated 2025).
